Assay [1] has as its system head-rod domain of vimentin. Kind of assay: Yeast two-hybrid, PKN N-terminal region with vimentin. The class given is binding. Particulars: data not shown. From the text: Specificity of the interaction between PKN and various NFs was investigated by measuring the ability of the two-hybrid constructs, pBTM116(Vojtek, A. B. et al., Cell, 74, 205-214 (1993)) (instead of pGBT9)-PKN and pVP16 (Vojtek, A. B. et al., Cell, 74, 205-214 (1993)) (instead of pGAD10)-NF or in reverse, to support lacZ expression in L40 cells.
To determine whether N-terminal region of PKN binds to NFM or NFH as well as NFL, corresponding region to the head-rod domain of NFM or NFH was ligated to pVP16 and lacZ expression was measured in two-hybrid system. The N-terminal region of PKN bound to each head-rod domain of NF subunit (FIG. 11(B)), and also interacted with the corresponding head-rod domain of vimentin, a ubiquitously expressed member of intermediate filament, in two-hybrid system (data not shown).

For a further assay, the target named is T1, head-rod domain of NFL (Homo sapiens, UniProt P07196).
T1 construct: made in house; host or cells: bacteria (bacterially synthesized)
T1 sequence (P07196 1-349): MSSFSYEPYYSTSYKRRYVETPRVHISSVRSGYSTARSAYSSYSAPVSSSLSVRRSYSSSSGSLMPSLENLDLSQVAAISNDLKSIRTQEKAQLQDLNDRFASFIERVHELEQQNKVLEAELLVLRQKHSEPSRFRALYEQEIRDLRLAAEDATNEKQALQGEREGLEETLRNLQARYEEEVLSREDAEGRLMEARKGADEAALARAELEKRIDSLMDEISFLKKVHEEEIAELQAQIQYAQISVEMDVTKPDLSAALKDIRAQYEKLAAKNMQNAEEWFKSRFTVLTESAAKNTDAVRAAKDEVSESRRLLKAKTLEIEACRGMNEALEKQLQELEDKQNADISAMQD
In words: In vitro binding of in vitro translated PKN to GST-NFL. The note with it: GST pull-down. The text has this: For in vitro transcription, truncated human PKN was made as follows; Expression vector pPKNN2 for N-terminal region of PKN (the amino acid sequence 1-474 in SEQ ID NO: 1, this region was designated as “PKNN2”) was made by digesting phPKN-H4 (a plasmid containing human PKN cDNA in pBluescript II SK (Mukai, H. & Ono, Y., Biochem. Biophys. Res. Commun. 199, 897-904 (1994)) with Bst EII, and filling in the ends with T4 DNA polymerase, and self-legation. This removed the original amino acid sequences C-terminal downstream of the BstEII site (1425 nucleotides from initiating ATG codon), and a stop codon was created in the plasmid sequence. Fragment coding for the amino acid sequence 614-942 in SEQ ID NO: 1, (This region was designated as “PKNC2”) containing the conserved catalytic domain of human PKN was made by PCR amplification. Expression vector pPKNC2 was made by subcloning this fragment into pRc/CMV (Invitfrogen Corp.). These plasmids were linealized by cutting with XbaI, and CRNA was transcribed using T7 RNA polymerase. For NFL, pBL (Nakagawa, T. et al., J. Cell. Biol. 129, 411-429 (1995)) was linealized by cutting with HindIII, and CRNA was transcribed using T3 RNA polymerase. For in vitro translation, these cRNAs were translated in rabbit reticulocyte lysate (Promega) in the presence of [^35S] methionine. […]

On to “N-terminal region of PKN: N-terminal regulatory region of human PKN: 1-540 (PKNN1) in two-hybrid and GST fusions, 1-474 when in vitro translated”, for which, in assay [1], the “interaction with head-rod domain of vimentin in two-hybrid system” value is listed as “interacted”. The “binding to head-rod domain of NFL in vitro” value with head-rod domain of NFL is reported as “bound”.

(Values after US6660837B1, “Modified protein derived from protein kinase N” (Kirin Beer Kabushiki Kaisha, priority 1995, dated 2003).)
